Results from patent US5541116A, “Method for the stabilization of endogenous, physiologically active peptides” (B.R.A.H.M.S. Diagnostica GmbH, priority 1991, dated 1996).
Where two headings read alike, the source gives them in different places. Where a SMILES comes first, the peptide text is derived from it. [ ]: non-standard residue; d: D form. The star is where a group is joined. Sta = CC(C)C[C@H](N)[C@@H](O)CC(=O)O; Isovaleryl = CC(C)CC(=O)*

Columns and labels:
[1] = tested on: endogenous proteases which are active in human serum and plasma; assay: Hydrolysis of 125I-ACTH 1-39 in human serum or EDTA plasma with protease inhibitors (RP-HPLC, radioactivity detection); assay type: biochemical
[2] = tested on: endogenous proteases which are active in human serum and plasma; assay: Variation of inhibitor concentrations to find the minimum needed for adequate protection of the peptides; assay type: biochemical; conditions: in the presence of the other inhibitors; serum or plasma sample
Excerpt: To determine the concentrations of the individual inhibitors which are required for adequate protection of the peptides, in the presence of the other inhibitors, the concentrations were repeatedly varied.

[3] = 125I-ACTH 1-39, inhibitor 100 μM, EDTA plasma, 22° C., 25 h
[4] = 125I-ACTH 1-39, inhibitor 100 μM, serum, 22° C., 18 h
[5] = 125I-ACTH 1-39, inhibitor 1 mM, EDTA plasma, 22° C., 25 h
[6] = 125I-ACTH 1-39, inhibitor 1 mM, serum, 22° C., 18 h

CC(C)C[C@@H](N)[C@H](O)C(=O)N[C@H](C(=O)N[C@H](C(=O)N[C@@H](CC(=O)O)C(=O)O)C(C)C)C(C)C [Amastatin]
% of hydrolysis rate of the control, in EDTA plasma [1, 3]: 3% | % of hydrolysis rate of the control, in serum [1, 4]: 17%

N=C(N)c1ccccc1 [Benzamidine]
% of hydrolysis rate of the control, in EDTA plasma [1, 5]: 80% | % of hydrolysis rate of the control, in serum [1, 6]: 84%

CC(C)C[C@H](NC(=O)[C@@H](O)[C@H](N)Cc1ccccc1)C(=O)O [Bestatin]
% of hydrolysis rate of the control, in EDTA plasma [1, 5]: 27% | % of hydrolysis rate of the control, in serum [1, 6]: 44%

CC(C)C[C@H](NC(=O)N[C@H](C(=O)N[C@@H](CCC(N)=O)C(=O)N[C@@H](C)C=O)[C@@H]1CCNC(=N)N1)C(=O)O [Elastatinal]
% of hydrolysis rate of the control, in EDTA plasma [1, 3]: 100% | % of hydrolysis rate of the control, in serum [1, 4]: 97%

CC(=O)N[C@@H](CC(C)C)C(=O)N[C@@H](CC(C)C)C(=O)N[C@H](C=O)CCCNC(=N)N [Leupeptin]
% of hydrolysis rate of the control, in EDTA plasma [1]: 27 | % of hydrolysis rate of the control, in serum [1]: 41 | minimum concentration present in the sample for effective protection [2]: 50 µM

CCN1C(=O)C=CC1=O [N-Ethylmaleimide]
% of hydrolysis rate of the control, in EDTA plasma ([1]; 125I-ACTH 1-39, inhibitor 2 mM, EDTA plasma, 22° C., 25 h): 54% | % of hydrolysis rate of the control, in serum ([1]; 125I-ACTH 1-39, inhibitor 2 mM, serum, 22° C., 18 h): 48%

CC(C)CC(=O)N[C@H](C(=O)N[C@H](C(=O)N[C@@H](CC(C)C)[C@@H](O)CC(=O)N[C@@H](C)C(=O)N[C@@H](CC(C)C)[C@@H](O)CC(=O)O)C(C)C)C(C)C [Pepstatin] (Isovaleryl-VV[Sta]A[Sta]-OH)
% of hydrolysis rate of the control, in EDTA plasma [1, 3]: 79% | % of hydrolysis rate of the control, in serum [1, 4]: 105%

O=S(=O)(F)Cc1ccccc1 [Phenylmethylsulphonyl fluoride]
% of hydrolysis rate of the control, in EDTA plasma [1]: 100 | % of hydrolysis rate of the control, in serum [1]: 97

CC(C)C[C@H](NP(=O)(O)O[C@@H]1O[C@@H](C)[C@H](O)[C@@H](O)[C@H]1O)C(=O)N[C@@H](Cc1c[nH]c2ccccc12)C(=O)O [Phosphoramidone]
% of hydrolysis rate of the control, in EDTA plasma [1, 5]: 85% | % of hydrolysis rate of the control, in serum [1, 6]: 98%

O=S(=O)(O)c1cc[c]([Hg][Cl])cc1 [p-Choloromercuryphenylsulphonic acid, p-Choloromercury-phenylsulphonic acid]
% of hydrolysis rate of the control, in EDTA plasma [1]: 62 | % of hydrolysis rate of the control, in serum [1]: 94

Antithrombin III
% of hydrolysis rate of the control, in EDTA plasma ([1]; 125I-ACTH 1-39, inhibitor 0.1 unit/ml, EDTA plasma, 22° C., 25 h): 79% | % of hydrolysis rate of the control, in serum ([1]; 125I-ACTH 1-39, inhibitor 0.1 unit/ml, serum, 22° C., 18 h): 107%

Heparin
% of hydrolysis rate of the control, in EDTA plasma ([1]; 125I-ACTH 1-39, inhibitor 5 mg/ml, EDTA plasma, 22° C., 25 h): 103% | % of hydrolysis rate of the control, in serum ([1]; 125I-ACTH 1-39, inhibitor 5 mg/ml, serum, 22° C., 18 h): 126%

B1: Trypsin inhibitor (soybean): soybean trypsin inhibitor (Sigma T-900) (protein, UniProt P01070 25-205, looked up)
Trypsin inhibitor A: DFVLDNEGNPLENGGTYYILSDITAFGGIRAAPTGNERCPLTVVQSRNELDKGIGTIISSPYRIRFIAEGHPLSLKFDSFAVIMLCVGIPTEWSVVEDLPEGPAVKIGENKDAMDGWFRLERVSDDEFNNYKLVFCPQQAEDDKCGDIGISIDHDDGTRRLVVSKNKPLVVQFQKLDKESL
% of hydrolysis rate of the control, in EDTA plasma ([1]; 125I-ACTH 1-39, inhibitor 0.1 mg/ml, EDTA plasma, 22° C., 25 h): 71% | % of hydrolysis rate of the control, in serum ([1]; 125I-ACTH 1-39, inhibitor 0.1 mg/ml, serum, 22° C., 18 h): 78%
